Source: US9340585B2, “Competence stimulating peptide” (INSTITUT NATIONAL DE LA RECHERCHE AGRONOMIQUE, priority 2009, dated 2016)
Where no end group is shown, it is not given here. The star is where a group is joined. Cam = NC(=O)C*

Columns and labels:
[1] = test system: strain deleted for the papR gene; assay: Transformation assay: peptide added to culture of papR-deleted strain in CDM; type: cell-based, S. thermophilus; settings: for Competence: peptide stimulates competence, YES/NO
Procedure: (§1) S. thermophilus cells are grown overnight at 42° C. in CDM. The culture is then diluted in CDM at an OD600 0.05. Sixty minutes after dilution, the competence stimulating peptide (CSP), which is the mature peptide comprising SEQ ID No1 or fragments or derivatives of SEQ ID No1 that allow to induce competence in S. thermophilus, is added to the culture at a final concentration of 1 μM. Ten minutes later, 100 μl of the culture containing the CSP is mixed with 1 μg of DNA and incubated for 2 hours at 28° C. when mixed with a thermosensitive replicative plasmid DNA or 1 hour at 42° C. when mixed with chromosomal DNA or PCR fragments, before being serially diluted and spread on M17lac plates with the appropriate antibiotic.
The inventors tested the activity of fragments of SEQ ID No1 using a strain deleted for the papR gene using the protocol described in part 8. The inventors thus synthesized different fragments of SEQ ID No1 in order to test their biological activity. Fragments were synthesized as below:
(§2) To test the biological activity of those fragments, peptides were added to a culture of a strain deleted for the papR gene at a final concentration of 1 μM, 1 hour after the dilution of the culture at an OD600 of 0.05 in a chemical defined medium (CDM). Transformation assays were performed with 100 μl of cells with 1 μg of plasmid and or chromosomal DNA.

[2] = test system: S. thermophilus strain LMG18311; assay: Transformation assay: peptide added to culture of strain LMG18311; type: cell-based
Procedure: as §1, §2
(§3) S. thermophilus strain LMG18311 is naturally poorly competent and strain CNRZ1066 is naturally not competent. However, complementation of both strains with a plasmid that overexpresses the papR gene makes them competent. […]

[3] = test system: S. thermophilus strain CNRZ1066; assay: Transformation assay: peptide added to culture of strain CNRZ1066; type: cell-based
Procedure: as §1, §2, §3

[4] = Chromosomal transforming DNA, alkylation comparison
[5] = Chromosomal transforming DNA 1 μg, peptide 1 μM, fragment comparison

For “IAILPYFAGC*L (IAILPYFAGC(Cam)L; listed as Streptococcus thermophilus) [Alkylated SEQ ID N^o7]”, the “numbers of transformants obtained with 100 μl of competent cells” value (from here on “numbers of transformants obtained”) [1, 4] was 0 and the “numbers of transformants obtained” value ([1]; Plasmid transforming DNA, alkylation comparison) was 2.

“IAILPYFAGCL (listed as Streptococcus thermophilus) [SEQ ID N^o7]” was tested, and the “competence after addition of the peptide to the culture” value ([2]; LMG18311, result in words) was “renders them competent”, the “numbers of transformants obtained” value ([2]; LMG18311, Chromosomal transforming DNA) was 477 and the “numbers of transformants obtained” value [1, 5] was 24. For the same substance, the “numbers of transformants obtained” value [1, 4] was 35, the Competence ([1]; listed as 7) was “YES” and the Competence ([1]; listed as SEQ ID No7) was “active competence peptide”. The “competence after addition of the peptide to the culture” value ([3]; CNRZ1066, result in words) was “renders them competent” and the “numbers of transformants obtained” value ([3]; CNRZ1066, Chromosomal transforming DNA) was 0.

In the case of “LPYFAGCL (Fragment of SEQ ID N07) [SEQ ID N^o12]”, the “numbers of transformants obtained” value [1, 5] is reported as 41.

“PYFAGCL (Fragment of SEQ ID N07) [SEQ ID N^o13]” was tested, and the “numbers of transformants obtained” value [1, 5] was 0 and the “numbers of transformants obtained” value ([1]; Plasmid transforming DNA 1 μg, peptide 1 μM, fragment comparison) was 0.
